Experiments:
[1] = system: Prostatic cancer cells, PC-3; experiment: Cancer cell inhibitory (growth suppressive) action against prostatic cancer cells, CellTiter-Glo viable cell count; type: cell-based; conditions: PC-3, 10 μg/mL, 24 hours
Procedure: Prostatic cancer cells, PC-3, were pre-cultured in RPMI1640 medium containing 10% FBS at 37° C. in a 5% CO2 ambient. Thereafter, 4,000 cells were seeded per well of a 96-well plate and further cultured for 24 hours. Subsequently, Compound (1) was added to the medium so as to obtain a final concentration of 10 μg/mL and cultured at 37° C. for 24 hours in a 5% CO2 ambient. The cultured cells were analyzed for viable cell count according to Cell Titer-Glo Luminescent Cell Viability Assay (manufactured by Promega KK.).
Viable cell count was analyzed in the same manner as in Experimental Example 24 except that Compound (1) of Experimental Example 24 was changed to each compound shown in Table 2.
Viable cell count was analyzed in the same manner as in Experimental Example 24 except that Compound (1) of Experimental Example 24 was changed to each of Comparative compounds 1 to 4, to obtain growth rates.
Note that the growth rate used in Examples refers to the rate (expressed by percentage) of viable cell count after culture relative to the number of cells at the initiation of cell culture. Evaluation criteria are the same as in the above experiments.

[2] = system: Human pancreas cancer cells, KLM-1; experiment: Cancer cell inhibitory (growth suppressive) action against pancreatic cancer cells, CellTiter-Glo viable cell count; conditions: KLM-1, 10 μg/mL, 24 hours
Procedure: Human pancreas cancer cells, KLM-1, were pre-cultured in RPMI1640 medium containing 10% FBS at 37° C. in a 5% CO2 ambient. Thereafter, 4,000 cells were seeded per well of a 96-well plate and further cultured for 24 hours. […] The cultured cells were analyzed for viable cell count according to CellTiter-Glo Luminescent Cell Viability Assay (manufactured by Promega KK.).
Evaluation of cancer cell inhibition against the pancreatic cancer cells (KLM-1) (growth suppression) was made based on the following criteria. Note that the growth rate used in Examples refers to the rate (expressed by percentage) of viable cell count after culture relative to the number of cells at the initiation of cell culture.

[3] = system: Human chronic myelocytic leukemia cells, K562, ALDH (+) fraction (cancer stem cells); experiment: Cancer stem-cell selective inhibitory action against chronic myelocytic leukemia cells, ALDH (+) fraction; type: cell-based; conditions: 24 hours
Procedure: Human chronic myelocytic leukemia cells, K562, were pre-cultured in RPMI1640 medium containing 10% FBS at 37° C. in a 5% CO2 ambient. Then, a fraction containing 80% or more of cancer stem cells was extracted by use of a cancer stem cell marker, ALDEFLUOR reagent (manufactured by VERITAS Corporation) and FACSAria flow cytometry (manufactured by Nippon Becton, Dickinson and Company). […] The cultured cells were analyzed for viable cell count according to CellTiter-Glo Luminescent Cell Viability Assay (manufactured by Promega KK.). […] Note that hereinafter, an ALDEFLUOR reagent positive fraction (deemed as cancer stem cells) is represented by ALDH (+), whereas an ALDEFLUOR reagent negative fraction (not deemed as cancer stem cells) is represented by ALDH (−), in some cases.
Further, the growth suppressive effect of cancer stem cells was evaluated based on the following criteria. Note that the growth rate in Examples is a value obtained by dividing viable cell count after culture by the number of cells at the initiation time of culture.

[4] = Measurement of fluorescent property of compound; type: physicochemical; conditions: 5 μM DMSO solution
Procedure: The excitation wavelength and fluorescence wavelength of the compound were measured by a FL4500 spectrofluorometric measuring machine manufactured by Hitachi High-Technologies Corporation.

Structure (SMILES)	Excitation wavelength λex [4] [nm]	Fluorescence wavelength λem [4] [nm]	Cancer cell growth rate (%) [1] [%]	Evaluation (cancer cell growth rate) [1]	Cancer cell growth rate (%) [2] [%]	Evaluation (cancer cell growth rate) [2]	ALDH(+) Superiority evaluation ([3]; K562, 1 μg/ml)	ALDH(+)/ALDH(−) ([3]; K562, 1 μg/ml)	ALDH(+) Superiority evaluation ([3]; K562, 10 μg/ml)	ALDH(+)/ALDH(−) ([3]; K562, 10 μg/ml)
O=C(O)CN1/C(=C\C2=C(Cl)C(=C/c3sc4ccccc4[n+]3CC(=O)O)/CCC2)Sc2ccccc21 [Comparative compound 3, reference compound]			101	C (Cancer cell growth rate is 50% or more)	93.0	C (Cancer cell growth rate is 50% or more)	C (The value of the growth rate of ALDH (+)/the growth rate of ALDH (−) is 0.95 or more)	0.79		
CN1/C(=C\C=C\C2=[N+](C)c3ccc4ccccc4c3C2(C)C)C(C)(C)c2c1ccc1ccccc21 [Compound 20]			13.1	A (Cancer cell growth rate is less than 20%)	1.2	A (Cancer cell growth rate is less than 20%)				
CCN1/C(=C/C=C/C=C/C=C/C2=[N+](CC)c3ccccc3C23CCCCC3)C2(CCCCC2)c2ccccc21 [Compound 31]					30.5	B (Cancer cell growth rate is 20% or more and less than 50%)				
CCN1/C(=C/C=C/C=C/C=C/C2=[N+](CC)c3ccccc3C2(C)C)C(C)(C)c2ccccc21 [Compound 32]									A (The value of the growth rate of ALDH (+)/the growth rate of ALDH (−) is less than 0.8)	0.32
CCN1/C(=C/C=C2\CCCC(/C=C/C3=[N+](CC)c4ccc(OC)cc4C3(C)C)=C2Cl)C(C)(C)c2cc(OC)ccc21 [Compound 40]	819	825			14.1	A (Cancer cell growth rate is less than 20%)				
CCCC[N+]1=C(/C=C/C2=C(Cl)C(=C/C=C3/N(C)c4ccccc4C3(C)C)/CCC2)C(C)(C)c2c1ccc1ccccc21 [Compound 51]									A (The value of the growth rate of ALDH (+)/the growth rate of ALDH (−) is less than 0.8)	0.27
CC(C)CCN1/C(=C/C=C/C=C/C2=[N+](CCC(C)C)c3ccc4ccccc4c3C2(C)C)C(C)(C)c2c1ccc1ccccc21 [Compound 55]	688	715							A (The value of the growth rate of ALDH (+)/the growth rate of ALDH (−) is less than 0.8)	0.33
CCC(/C=C1\Oc2ccccc2N1CC)=C\c1oc2ccccc2[n+]1CC [Compound 56]									A (The value of the growth rate of ALDH (+)/the growth rate of ALDH (−) is less than 0.8)	0.65
CCC(=C\c1oc2ccc(-c3ccccc3)cc2[n+]1CC)/C=C1/Oc2ccc(-c3ccccc3)cc2N1CC [Compound 57]									B (The value of the growth rate of ALDH (+)/the growth rate of ALDH (−) is 0.8 or more and less than 0.95)	0.81
CN1/C(=C/C=C2\CCCC(/C=C/C3=[N+](C)c4ccccc4C3(C)C)=C2Sc2ccccc2)C(C)(C)c2ccccc21 [Compound 59]	804	520					A (The value of the growth rate of ALDH (+)/the growth rate of ALDH (−) is less than 0.8)	0.67	A (The value of the growth rate of ALDH (+)/the growth rate of ALDH (−) is less than 0.8)	0.22
CN1/C(=C/C=C/C=C/C2=[N+](C)c3ccc4ccccc4c3C2(C)C)C(C)(C)c2cc(Cl)ccc21 [Compound 60]	670	696							A (The value of the growth rate of ALDH (+)/the growth rate of ALDH (−) is less than 0.8)	0.34

The next lines start with results.

Excitation wavelength λex [4] [nm]	Fluorescence wavelength λem [4] [nm]	Structure (SMILES)	Cancer cell growth rate (%) [1] [%]	Evaluation (cancer cell growth rate) [1]	Cancer cell growth rate (%) [2] [%]	Evaluation (cancer cell growth rate) [2]	ALDH(+) Superiority evaluation ([3]; K562, 1 μg/ml)	ALDH(+)/ALDH(−) ([3]; K562, 1 μg/ml)	ALDH(+) Superiority evaluation ([3]; K562, 10 μg/ml)	ALDH(+)/ALDH(−) ([3]; K562, 10 μg/ml)
563	569	CCC(/C=C1\Sc2ccccc2N1CC)=C\c1sc2ccccc2[n+]1CC.[I-] [Compound 4]	19.5	A (Cancer cell growth rate is less than 20%)	3.1	A (Cancer cell growth rate is less than 20%)				
344	381	CCC(=C\c1sc2c3ccccc3ccc2[n+]1CC)/C=C1/Sc2c(ccc3ccccc23)N1CC.[I-] [Compound 7]	15.3	A (Cancer cell growth rate is less than 20%)	13.0	A (Cancer cell growth rate is less than 20%)				
586	615	CCC(=C\c1sc2ccc3ccccc3c2[n+]1CC)/C=C1/Sc2ccc3ccccc3c2N1CC [Compound 10]			13.5	A (Cancer cell growth rate is less than 20%)				
354	469	CCN1/C(=C\C(C)=C\c2sc3c4ccccc4ccc3[n+]2CC)Sc2c1ccc1ccccc21 [Compound 11]	4.3	A (Cancer cell growth rate is less than 20%)	5.0	A (Cancer cell growth rate is less than 20%)				
492	510	CCCCCCCN1/C(=C\C=C\c2oc3ccccc3[n+]2CCCCCCC)Oc2ccccc21 [Compound 18]							A (The value of the growth rate of ALDH (+)/the growth rate of ALDH (−) is less than 0.8)	0.29
589	614	CCN1\C(=C/C=C/C=C/c2oc3ccccc3[n+]2CC)Oc2ccccc21 [Compound 28]					B (The value of the growth rate of ALDH (+)/the growth rate of ALDH (−) is 0.8 or more and less than 0.95)	0.83	A (The value of the growth rate of ALDH (+)/the growth rate of ALDH (−) is less than 0.8)	0.69
650	770	CCOC(=O)C1(C(=O)OCC)CC(/C=C/C2=[N+](CC)c3ccccc3C2(C)C)=CC(=C/C=C2/N(CC)c3ccccc3C2(C)C)/C1 [Compound 37]			4.8	A (Cancer cell growth rate is less than 20%)				
665	681	CCN1C=C/C(=C/C=C/c2ccc3ccccc3[n+]2CC)c2ccccc21.[I-] [Compound 45]			28.5	B (Cancer cell growth rate is 20% or more and less than 50%)				
774	800	CCCCN1/C(=C/C=C2\CCCC(/C=C/C3=[N+](CCCC)c4ccccc4C3(C)C)=C2c2ccccc2)C(C)(C)c2ccccc21 [Compound 54]							A (The value of the growth rate of ALDH (+)/the growth rate of ALDH (−) is less than 0.8)	0.50

— patent US10278965B2, “Method of detecting cancer stem cell, method of screening cancer stem cell, and method of inhibiting cancer stem cell” (CANON KABUSHIKI KAISHA, priority 2012, dated 2019)
